Laboratory results reported in patent publication US20110044938A1 (NYCOMED GMBH, priority 2006, published 2011).

How the values were obtained:
[1] = system: subclones of RKO colon adenocarcinoma cells (RKOp27 or RKOp21) arrested by Ponasterone A; assay: Alamar Blue cell viability assay, cell cycle specific mode of action: cells arrested by ectopic p27Kip1 induced by Ponasterone A versus proliferating cells; assay type: cell-based; conditions: Homo sapiens, RKO p27 induced (arrested) cells, 10 μM Ponasterone A, 72 hours, value = class bound given in Table A, read-out: −logIC50 RKO p27 induced (arrested) (converted)
Summary of the method: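 RKOp27 or RKOp21 cells, 15000/well in DMEM/10% FCS, either arrested by p27Kip1 induced with 10 μM Ponasterone A or proliferating without inducer; compound added after 24 h, 72 h at 37° C. Alamar Blue fluorescence (544/590 nm), viability as % of untreated cells; −log IC50 reported.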

[2] = system: RKO (RKOp27) human colon adenocarcinoma cells; assay: Alamar Blue cell viability assay, anti-proliferative/cytotoxic activity on proliferating RKO subclones; assay type: cell-based; conditions: RKOp27, 72 h, RKO p27 uninduced (proliferating) cells, value = class bound given in Table A, read-out: −logIC50 RKO p27 uninduced (proliferating) (converted)
Summary of the method: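 RKOp27 subclones (5000 cells/well) were exposed 24 h after seeding to semi-log compound dilutions in DMEM with 10% FCS, in quadruplicate, for 72 h at 37 °C. Viability was read by Alamar Blue fluorescence (544/590 nm) relative to untreated cells (1% DMSO medium). IC50 came from concentration-effect curves and is reported as −log IC50 [mol/l].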

Compound | IC50 [1] | IC50 [2]
N#Cc1c(NC(=O)/C=C/c2cccnc2)sc2c1CCC(COC(=O)NCc1ccccc1)C2 (stereo not drawn) [Example 7, Benzyl-carbamic acid 3-cyano-2-((E)-3-pyridin-3-yl-allanoylamino)-4,5,6,7-tetrahydro-benzo[b]thiophen-6-ylmethyl ester] | ≥ 100000 nM | ≤ 501 nM
N#Cc1c(NC(=O)/C=C/c2cccnc2)sc2c1CCC(OC(=O)N1CCC(O)CC1)C2 (stereo not drawn) [Example 96, 4-Hydroxy-piperidine-1-carboxylic acid 3-cyano-2-((E)-3-pyridin-3-yl-allanoylamino)-4,5,6,7-tetrahydro-benzo[b]thiophen-6-yl ester] | ≥ 100000 nM | ≤ 501 nM
CNC(=O)OCC1CCc2c(sc(NC(=O)CCc3cccc(OC)c3)c2C#N)C1 (stereo not drawn) [Example 233, Methyl-carbamic acid 3-cyano-2-[3-(3-methoxy-phenyl)-propanoylamino]-4,5,6,7-tetrahydro-benzo[b]thiophen-6-ylmethyl ester] | ≥ 100000 nM | ≤ 501 nM
N#Cc1c(NC(=O)/C=C/c2cccnc2)sc2c1CCC(OC(=O)N1CC(O)C1)C2 (stereo not drawn) [Example 77, 3-Hydroxy-azetidine-1-carboxylic acid 3-cyano-2-((E)-3-pyridin-3-yl-allanoylamino)-4,5,6,7-tetrahydro-benzo[b]thiophen-6-yl ester] | ≥ 100000 nM | ≤ 501 nM
COC(=O)OCC1CCc2c(sc(NC(=O)/C=C/c3cccnc3)c2C#N)C1 (stereo not drawn) [Example 49, Carbonic acid 3-cyano-2-((E)-3-pyridin-3-yl-allanoylamino)-4,5,6,7-tetrahydro-benzo[b]thiophen-6-ylmethyl ester methyl ester] | ≥ 100000 nM | 501 to 2000 nM
CC(C)CN(C)C(=O)OCC1CCc2c(sc(NC(=O)/C=C/c3cccnc3)c2C#N)C1 (stereo not drawn) [Example 137, Isobutyl-methyl-carbamic acid 3-cyano-2-((E)-3-pyridin-3-yl-allanoylamino)-4,5,6,7-tetrahydro-benzo[b]thiophen-6-ylmethyl ester] | ≥ 100000 nM | ≤ 501 nM
COc1cccc(CCC(=O)Nc2sc3c(c2C#N)CCC(OC(=O)NCCO)C3)c1 (stereo not drawn) [Example 250, (2-Hydroxy-ethyl)-carbamic acid 3-cyano-2-[3-(3-methoxy-phenyl)-propanoylamino]-4,5,6,7-tetrahydro-benzo[b]thiophen-6-yl ester] | ≥ 100000 nM | ≤ 501 nM
Cn1nccc1CNC(=O)OC1CCc2c(sc(NC(=O)/C=C/c3cccnc3)c2C#N)C1 (stereo not drawn) [Example 40, (2-Methyl-2H-pyrazol-3-ylmethyl)-carbamic acid 3-cyano-2-((E)-3-pyridin-3-yl-allanoylamino)-4,5,6,7-tetrahydro-benzo[b]thiophen-6-yl ester] | ≥ 100000 nM | ≤ 501 nM
CCNC(=O)OC1CCc2c(sc(NC(=O)/C=C/c3ccccc3OCC)c2C#N)C1 (stereo not drawn) [Example 5, Ethyl-carbamic acid 3-cyano-2-[(E)-3-(2-ethoxy-phenyl)-allanoylamino]-4,5,6,7-tetrahydro-benzo[b]thiophen-6-yl ester] | ≥ 10000 nM | ≤ 501 nM
CCOc1ccccc1CCC(=O)Nc1sc2c(c1C#N)CCC(OC(=O)NCc1ccnn1C)C2 (stereo not drawn) [Example 169, (2-Methyl-2H-pyrazol-3-ylmethyl)-carbamic acid 3-cyano-2-[3-(2-ethoxy-phenyl)-propanoylamino]-4,5,6,7-tetrahydro-benzo[b]thiophen-6-yl ester] | ≥ 50100 nM | ≤ 501 nM
N#Cc1c(NC(=O)/C=C/c2cccnc2)sc2c1CCC(COC(=O)N1CCC[C@H]1CO)C2 (stereo partly drawn) [Example 104, 2-(S)-(Hydroxymethyl) pyrrolidine-1-carboxylic acid 3-cyano-2-((E)-3-pyridin-3-yl-allanoylamino)-4,5,6,7-tetrahydro-benzo[b]thiophen-6-ylmethyl ester] | ≥ 100000 nM | ≤ 501 nM
Cc1nn(C)cc1CNC(=O)OCC1CCc2c(sc(NC(=O)/C=C/c3cccnc3)c2C#N)C1 (stereo not drawn) [Example 54, (1,3-Dimethyl-1H-pyrazol-4-ylmethyl)-carbamic acid 3-cyano-2-((E)-3-pyridin-3-yl-allanoylamino)-4,5,6,7-tetrahydro-benzo[b]thiophen-6-ylmethyl ester] | ≥ 100000 nM | ≤ 501 nM
N#Cc1c(NC(=O)/C=C/c2cccnc2)sc2c1CCC(OC(=O)N1CCC(O)C1)C2 (stereo not drawn) [Example 76, 3-Hydroxy-pyrrolidine-1-carboxylic acid 3-cyano-2-((E)-3-pyridin-3-yl-allanoylamino)-4,5,6,7-tetrahydro-benzo[b]thiophen-6-yl ester] | ≥ 100000 nM | ≤ 501 nM
CN(C)C(=O)OC[C@@H]1CCc2c(sc(NC(=O)/C=C/c3cccnc3)c2C#N)C1 [Example 74b, Dimethyl-carbamic acid (R)-3-cyano-2-((E)-3-pyridin-3-yl-allanoylamino)-4,5,6,7-tetrahydro-benzo[b]thiophen-6-ylmethyl ester] | ≥ 100000 nM | ≤ 501 nM
Cc1nc(CNC(=O)OCC2CCc3c(sc(NC(=O)/C=C/c4cccnc4)c3C#N)C2)cs1 (stereo not drawn) [Example 66, (2-Methyl-thiazol-4-ylmethyl)-carbamic acid 3-cyano-2-((E)-3-pyridin-3-yl-allanoylamino)-4,5,6,7-tetrahydro-benzo[b]thiophen-6-ylmethyl ester] | ≥ 100000 nM | ≤ 501 nM
COc1cccc(C(C)CC(=O)Nc2sc3c(c2C#N)CCC(OC(=O)NCC2CCOCC2)C3)c1 (stereo not drawn) [Example 270, (Tetrahydro-pyran-4-ylmethyl)-carbamic acid 3-cyano-2-[3-(3-methoxy-phenyl)-butanoyl-amino]-4,5,6,7-tetrahydro-benzo[b]thiophen-6-yl ester] | ≥ 100000 nM | 501 to 2000 nM
CCOC(=O)OC1CCc2c(sc(NC(=O)/C=C/c3ccccc3OCC)c2C#N)C1 (stereo not drawn) [Example 6, Carbonic acid 3-cyano-2-[(E)-3-(2-ethoxy-phenyl)-allanoylamino]-4,5,6,7-tetrahydro-benzo[b]thiophen-6-yl ester ethyl ester] | ≥ 100000 nM | 501 to 2000 nM
N#Cc1c(NC(=O)/C=C/c2cccnc2)sc2c1CCC(OC(=O)NC1CC1)C2 (stereo not drawn) [Example 21, Cyclopropyl-carbamic acid 3-cyano-2-((E)-3-pyridin-3-yl-allanoylamino)-4,5,6,7-tetrahydro-benzo[b]thiophen-6-yl ester] | ≥ 100000 nM | ≤ 501 nM
COc1cccc(CCC(=O)Nc2sc3c(c2C#N)CCC(OC(=O)NCc2cc(C)no2)C3)c1 (stereo not drawn) [Example 230, (3-Methyl-isoxazol-5-ylmethyl)-carbamic acid 3-cyano-2-[3-(3-methoxy-phenyl)-propanoylamino]-4,5,6,7-tetrahydro-benzo[b]thiophen-6-yl ester] | ≥ 100000 nM | 501 to 2000 nM
CN(C)C(=O)OCC1CCc2c(sc(NC(=O)/C=C/c3cccnc3)c2C#N)C1 (stereo not drawn) [Example 74, Dimethyl-carbamic acid 3-cyano-2-((E)-3-pyridin-3-yl-allanoylamino)-4,5,6,7-tetrahydro-benzo[b]thiophen-6-ylmethyl ester] | ≥ 100000 nM | ≤ 501 nM
N#Cc1c(NC(=O)/C=C/c2cccnc2)sc2c1CCC(COC(=O)N1CC[C@H](O)C1)C2 (stereo partly drawn) [Example 144, (S)-3-Hydroxy-pyrrolidine-1-carboxylic acid 3-cyano-2-((E)-3-pyridin-3-yl-allanoylamino)-4,5,6,7-tetrahydro-benzo[b]thiophen-6-ylmethyl ester] | ≥ 100000 nM | ≤ 501 nM
